Target: T1, hFAAH (Homo sapiens, UniProt O00519)
T1 construct: expressed in transfected cells; host or cells: HEK293-TRex (Invitrogen) stably transfected with hFAAH in the pcDNA5-Tet-off vector, or T84 human colon epithelial cells (endogenous hFAAH); used as a microsomal preparation
T1 sequence (O00519 1-579): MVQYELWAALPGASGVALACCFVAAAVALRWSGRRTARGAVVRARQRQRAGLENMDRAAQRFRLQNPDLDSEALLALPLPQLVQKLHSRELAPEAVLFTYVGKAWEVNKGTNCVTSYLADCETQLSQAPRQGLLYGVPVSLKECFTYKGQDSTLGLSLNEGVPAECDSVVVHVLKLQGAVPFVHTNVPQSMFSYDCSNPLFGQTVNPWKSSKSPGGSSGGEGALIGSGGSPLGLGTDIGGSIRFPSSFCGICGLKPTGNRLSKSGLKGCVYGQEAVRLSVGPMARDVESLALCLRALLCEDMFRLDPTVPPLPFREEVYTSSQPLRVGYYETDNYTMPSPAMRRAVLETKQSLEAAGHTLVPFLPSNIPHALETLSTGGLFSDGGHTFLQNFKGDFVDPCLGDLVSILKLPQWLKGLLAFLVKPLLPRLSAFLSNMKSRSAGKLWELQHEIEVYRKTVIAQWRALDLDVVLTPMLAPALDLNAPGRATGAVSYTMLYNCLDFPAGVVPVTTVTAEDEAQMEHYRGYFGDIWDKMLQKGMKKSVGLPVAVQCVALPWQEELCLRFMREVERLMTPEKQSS
Test: Fluorimetric assay with hFAAH microsomes (enzymatic, fluorescence based)
Assay type: biochemical
Settings: compound at 1 uM, AA-AMC substrate
Protocol: Human cell line T84 (human colon epithelial cells), which expresses endogenous hFAAH, or HEK293-TRex cells (Invitrogen) stably transfected with hFAAH in the pcDNA5-Tet-off vector are cultured in medium containing DMEM, 10% FBS penicillin/streptomycin, glutamax, 200 μg/ml hygromycin and 0.5 μg/ml blasticidin. Cell collection is done 24 h after induction with doxycycline by first washing the cells with cold PBS and then incubating them with Versene before centrifugation. Cell pellets are then stored at −80° C. until needed. For homogenization, the cell pellets are thawed on ice […] and resuspended in homogenization buffer (50 mM HEPES (pH 7.4), 1 mM EDTA, 1 μM Pepstatin A, 100 μM Leupeptin, 0.1 mg/mL aprotinin). Cell suspensions are then homogenized on ice using the Polytron 1200 C at setting 6 for three 30-second intervals with 30-second rests. The suspension is centrifuged at 1000 g for 10 minutes at 4° C. and the supernatant is collected and further centrifuged at 24000 rpm for 30 minutes at 4° C. using an ultracentrifuge. Pellets are resuspended by adding in cold microsomal buffer (50 mM HEPES (pH 7.4) and 1 mM EDTA) and sheared through a 23-gauge needle five times, keeping the suspension on ice. Protein concentrations are determined using the BCA assay and aliquoted preparations are stored at −80° C. until needed.
Compound potency against hFAAH is determined using an enzymatic assay with a fluorescence readout. Briefly, experiments were carried out in a 96-well plate format (Corning Costar, # 3370) with a total well volume of 160 μL with components added in the following order: assay buffer (50 mM HEPES (pH 7.4), 1 mM EDTA, 1.4 mg/mL BSA), compound solutions (7 different concentrations per compound in duplicate), microsomal enzyme preparation (10 μg per well) and substrate [AA-AMC (arachadonyl 7-amino 4-methyl coumarin amide), 2 μM]. After a brief shaking, a kinetic read of the plate is obtained using a Tecan Safire II in kinetic mode for 275 cycles with excitation and emission wavelengths of 355 and 460 nm, respectively. Raw data is then processed and analyzed using Assay Explorer and GraphPad Prism.
The following compounds have been or can be prepared according to the methods of the invention. An enzymatic (fluorescence based) assay is performed as described above. In Table 1, activity of each compound is expressed as follows: • ++++ % Inhibition >75% • +++ % Inhibition >50% • ++ % Inhibition >25% • + % Inhibition <25%

SMILES | inhibition at 1 µM [%]
c1ccc(CN2Cc3ncnc(Nc4cnc5ccccc5c4)c3C2)cc1 [Compound 1, (6-Benzyl-6,7-dihydro-5H-pyrrolo[3,4-d]pyrimidin-4-yl)-quinolin-3-yl-amine] | > 75
c1ccc2ncc(Nc3ncnc4c3CN(CC3CCCCC3)C4)cc2c1 [Compound 2, (6-Cyclohexylmethyl-6,7-dihydro-5H-pyrrolo[3,4-d]pyrimidin-4-yl)-quinolin-3-yl-amine] | > 75
CCN1Cc2ncnc(Nc3cnc4ccccc4c3)c2C1 [Compound 3, (6-Ethyl-6,7-dihydro-5H-pyrrolo[3,4-d]pyrimidin-4-yl)-quinolin-3-yl-amine] | < 25
CCCN1Cc2ncnc(Nc3cnc4ccccc4c3)c2C1 [Compound 4, (6-Propyl-6,7-dihydro-5H-pyrrolo[3,4-d]pyrimidin-4-yl)-quinolin-3-yl-amine] | < 25
c1ccc2ncc(Nc3ncnc4c3CN(CC3CC3)C4)cc2c1 [Compound 5, (6-Cyclopropylmethyl-6,7-dihydro-5H-pyrrolo[3,4-d]pyrimidin-4-yl)-quinolin-3-yl-amine] | < 25
CC(C)CN1Cc2ncnc(Nc3cnc4ccccc4c3)c2C1 [Compound 7, (6-Isobutyl-6,7-dihydro-5H-pyrrolo[3,4-d]pyrimidin-4-yl)-quinolin-3-yl-amine] | > 25
CCC(C)CN1Cc2ncnc(Nc3cnc4ccccc4c3)c2C1 (stereo not shown) [Compound 8, [6-(2-Methyl-butyl)-6,7-dihydro-5H-pyrrolo[3,4-d]pyrimidin-4-yl]-quinolin-3-yl-amine] | > 75
CC(C)(C)CN1Cc2ncnc(Nc3cnc4ccccc4c3)c2C1 [Compound 11, [6-(2,2-Dimethyl-propyl)-6,7-dihydro-5H-pyrrolo[3,4-d]pyrimidin-4-yl]-quinolin-3-yl-amine] | > 25
c1ccc2ncc(Nc3ncnc4c3CN(CC3CCCC3)C4)cc2c1 [Compound 12, (6-Cyclopentylmethyl-6,7-dihydro-5H-pyrrolo[3,4-d]pyrimidin-4-yl)-quinolin-3-yl-amine] | > 75
CCC(CC)CN1Cc2ncnc(Nc3cnc4ccccc4c3)c2C1 [Compound 14, [6-(2-Ethyl-butyl)-6,7-dihydro-5H-pyrrolo[3,4-d]pyrimidin-4-yl]-quinolin-3-yl-amine] | > 75
CC(C)(C)CCN1Cc2ncnc(Nc3cnc4ccccc4c3)c2C1 [Compound 15, [6-(3,3-Dimethyl-butyl)-6,7-dihydro-5H-pyrrolo[3,4-d]pyrimidin-4-yl]-quinolin-3-yl-amine] | > 25
c1ccc2ncc(Nc3ncnc4c3CN(CC3CCCOC3)C4)cc2c1 (stereo not shown) [Compound 16, Quinolin-3-yl-[6-(tetrahydro-pyran-3-ylmethyl)-6,7-dihydro-5H-pyrrolo[3,4-d]pyrimidin-4-yl]-amine] | > 50
Cc1ncccc1CN1Cc2ncnc(Nc3cnc4ccccc4c3)c2C1 [Compound 17, [6-(2-Methyl-pyridin-3-ylmethyl)-6,7-dihydro-5H-pyrrolo[3,4-d]pyrimidin-4-yl]-quinolin-3-yl-amine] | > 75
OCCCCN1Cc2ncnc(Nc3cnc4ccccc4c3)c2C1 [Compound 20, 4-[4-(Quinolin-3-ylamino)-5,7-dihydro-pyrrolo[3,4-d]pyrimidin-6-yl]-butan-1-ol] | < 25
c1ccc(CCN2Cc3ncnc(Nc4cnc5ccccc5c4)c3C2)cc1 [Compound 22, (6-Phenethyl-6,7-dihydro-5H-pyrrolo[3,4-d]pyrimidin-4-yl)-quinolin-3-yl-amine] | > 75
Cc1nc(CN2Cc3ncnc(Nc4cnc5ccccc5c4)c3C2)cs1 [Compound 25, [6-(2-Methyl-thiazol-4-ylmethyl)-6,7-dihydro-5H-pyrrolo[3,4-d]pyrimidin-4-yl]-quinolin-3-yl-amine] | < 25
Cc1nc(C)c(CN2Cc3ncnc(Nc4cnc5ccccc5c4)c3C2)s1 [Compound 28, [6-(2,4-Dimethyl-thiazol-5-ylmethyl)-6,7-dihydro-5H-pyrrolo[3,4-d]pyrimidin-4-yl]-quinolin-3-yl-amine] | > 75
CC1(CN2Cc3ncnc(Nc4cnc5ccccc5c4)c3C2)COC1 [Compound 29, [6-(3-Methyl-oxetan-3-ylmethyl)-6,7-dihydro-5H-pyrrolo[3,4-d]pyrimidin-4-yl]-quinolin-3-yl-amine] | > 25
FC(F)(F)CN1Cc2ncnc(Nc3cnc4ccccc4c3)c2C1 [Compound 30, Quinolin-3-yl-[6-(2,2,2-trifluoro-ethyl)-6,7-dihydro-5H-pyrrolo[3,4-d]pyrimidin-4-yl]-amine] | < 25
FC(F)(F)CCN1Cc2ncnc(Nc3cnc4ccccc4c3)c2C1 [Compound 31, Quinolin-3-yl-[6-(3,3,3-trifluoro-propyl)-6,7-dihydro-5H-pyrrolo[3,4-d]pyrimidin-4-yl]-amine] | > 50

More lines, now with the values ahead:

inhibition at 1 µM [%] | SMILES
> 25 | CCCCN1Cc2ncnc(Nc3cnc4ccccc4c3)c2C1 [Compound 6, (6-Butyl-6,7-dihydro-5H-pyrrolo[3,4-d]pyrimidin-4-yl)-quinolin-3-yl-amine]
> 50 | CC(C)CCN1Cc2ncnc(Nc3cnc4ccccc4c3)c2C1 [Compound 9, [6-(3-Methyl-butyl)-6,7-dihydro-5H-pyrrolo[3,4-d]pyrimidin-4-yl]-quinolin-3-yl-amine]
> 50 | CCCCCN1Cc2ncnc(Nc3cnc4ccccc4c3)c2C1 [Compound 10, (6-Pentyl-6,7-dihydro-5H-pyrrolo[3,4-d]pyrimidin-4-yl)-quinolin-3-yl-amine]
> 25 | c1ccc2ncc(Nc3ncnc4c3CN(CC3CCOC3)C4)cc2c1 (stereo not shown) [Compound 13, Quinolin-3-yl-[6-(tetrahydro-furan-3-ylmethyl)-6,7-dihydro-5H-pyrrolo[3,4-d]pyrimidin-4-yl]-amine]
> 75 | c1ccc2ncc(Nc3ncnc4c3CN(CC3CCSCC3)C4)cc2c1 [Compound 18, Quinolin-3-yl-[6-(tetrahydro-thiopyran-4-ylmethyl)-6,7-dihydro-5H-pyrrolo[3,4-d]pyrimidin-4-yl]-amine]
> 75 | CC(CN1Cc2ncnc(Nc3cnc4ccccc4c3)c2C1)c1ccccc1 (stereo not shown) [Compound 19, [6-(2-Phenyl-propyl)-6,7-dihydro-5H-pyrrolo[3,4-d]pyrimidin-4-yl]-quinolin-3-yl-amine]
> 50 | c1ccc2ncc(Nc3ncnc4c3CN(CC3CCC3)C4)cc2c1 [Compound 21, (6-Cyclobutylmethyl-6,7-dihydro-5H-pyrrolo[3,4-d]pyrimidin-4-yl)-quinolin-3-yl-amine]
> 25 | c1ccc2ncc(Nc3ncnc4c3CN(C3CCCCC3)C4)cc2c1 [Compound 23, (6-Cyclohexyl-6,7-dihydro-5H-pyrrolo[3,4-d]pyrimidin-4-yl)-quinolin-3-yl-amine]
> 25 | Cn1nccc1CN1Cc2ncnc(Nc3cnc4ccccc4c3)c2C1 [Compound 24, [6-(2-Methyl-2H-pyrazol-3-ylmethyl)-6,7-dihydro-5H-pyrrolo[3,4-d]pyrimidin-4-yl]-quinolin-3-yl-amine]
> 25 | Cc1c(CN2Cc3ncnc(Nc4cnc5ccccc5c4)c3C2)cnn1C [Compound 26, [6-(1,5-Dimethyl-1H-pyrazol-4-ylmethyl)-6,7-dihydro-5H-pyrrolo[3,4-d]pyrimidin-4-yl]-quinolin-3-yl-amine]
< 25 | CN1CCC(CN2Cc3ncnc(Nc4cnc5ccccc5c4)c3C2)CC1 [Compound 27, [6-(1-Methyl-piperidin-4-ylmethyl)-6,7-dihydro-5H-pyrrolo[3,4-d]pyrimidin-4-yl]-quinolin-3-yl-amine]
